Assay results published in US20160221921A1, “SKIN WHITENING AGENT CONTAINING NOVEL CYCLIC COMPOUND” (RNS CO.,LTD., priority 2013, published 2016).

Key:
[1] = system: B-16 mouse melanoma cells; experiment: Melanin generation inhibitory effects in terms of cells; assay type: cell-based; conditions: 72 h, 5 μg/ml, cultured for 3 days, relative to control, read-out: Inhibition rate (%) of melanin generation
Protocol: Each of the compounds prepared according to the procedures described in Examples 1 to 29 and hydroquinone were added to a culture solution containing B-16 mouse melanoma cells, followed by experiments to determine whitening effects in terms of cells (Lotan R., Lotan D. Cancer Res., 40, pp. 3345-3350, 1980). After treating the compounds to have final concentrations of […] and […], respectively, each of these compounds was added to a culture medium containing B-16 melanoma cells and cultured for 3 days. Then, these cells were treated using trypsin, separated from a culture vessel and centrifuged, then, melanin was extracted from the cells. Melanin was dissolved by adding 1 ml of 1N sodium hydroxide solution to the extract and subjected to measurement of absorbance at 475 nm, and an amount of the generated melanin was expressed by an absorbance per unit number of cells (10^6 cells) (this procedure was repeated three times). An amount of the generated melanin relative to control was calculated as an inhibition rate (%), and results thereof are shown in Table 1 below.

[2] = system: B-16 mouse melanoma cells; experiment: as above; assay type: cell-based; conditions: for inhibition at 20 µg/mL: 20 μg/ml
[3] = system: B-16 mouse melanoma cells; conditions: at 1 μg/ml or more
[4] = Mus musculus, 72 h, cultured for 3 days, relative to control, read-out: Inhibition rate (%) of melanin generation

| SMILES | inhibition at 5 µg/mL [1] [%] | inhibition at 20 µg/mL [2, 4] [%] | also measured |
| --- | --- | --- | --- |
| CCOC(=O)c1ccccc1OCC [Example 1, 2-ethoxy benzoic acid ethyl ester] | 31 | 46 | – |
| CCCOC(=O)c1ccccc1OCCC [Example 2, 2-propoxy benzoic acid propyl ester] | 41 | 52 | – |
| CCCCOC(=O)c1ccccc1OCCCC [Example 3, 2-butoxy benzoic acid butyl ester] | 45 | 64 | – |
| CCCCCOC(=O)c1ccccc1OCCCCC [Example 4, 2-pentyloxy benzoic acid pentyl ester] | 54 | 65 | – |
| CCCCCCOC(=O)c1ccccc1OCCCCCC [Example 5, 2-hexyloxy benzoic acid hexyl ester] | 52 | 67 | – |
| CCCCCCCCOC(=O)c1ccccc1OCCCCCCCC [Example 6, 2-octyloxy benzoic acid octyl ester] | 41 | 52 | – |
| CCCCCCCCCCOC(=O)c1ccccc1OCCCCCCCCCC [Example 7, 2-decyloxy benzoic acid decyl ester] | 22 | 35 | – |
| CCOC(=O)c1cccc(OCC)c1 [Example 8, 3-ethoxy benzoic acid ethyl ester] | 27 | 42 | – |
| CCCOC(=O)c1cccc(OCCC)c1 [Example 9, 3-propoxy benzoic acid propyl ester] | 29 | 48 | – |
| CCCCOC(=O)c1cccc(OCCCC)c1 [Example 10, 3-butoxy benzoic acid butyl ester] | 38 | 54 | – |
| CCCCCOC(=O)c1cccc(OCCCCC)c1 [Example 11, 3-pentyloxy benzoic acid pentyl ester] | 49 | 62 | – |
| CCCCCCOC(=O)c1cccc(OCCCCCC)c1 [Example 12, 3-hexyloxy benzoic acid hexyl ester] | 46 | 61 | – |
| CCCCCCCCOC(=O)c1cccc(OCCCCCCCC)c1 [Example 13, 3-octyloxy benzoic acid octyl ester] | 29 | 41 | – |
| CCCCCCCCCCOC(=O)c1cccc(OCCCCCCCCCC)c1 [Example 14, 3-decyloxy benzoic acid decyl ester] | 21 | 32 | – |
| CCCCCOC(=O)c1cc(C(C)=O)ccc1OCCCCC [Example 15, 5-acetyl-2-pentyloxy benzoic acid pentyl ester] | 39 | 57 | – |
| CCCCCOC(=O)c1ccc2ccccc2c1OCCCCC [Example 16, 1-pentyloxy-2-naphthoic acid pentyl ester] | 41 | 52 | – |
| CCCCCOC(=O)c1cc2ccccc2cc1OCCCCC [Example 17, 3-pentyloxy-2-naphthoic acid pentyl ester] | 38 | 52 | – |
| CCCCCOC(=O)c1ccncc1OCCCCC [Example 18, 3-pentyloxy-4-pyridinecarboxylic acid pentyl ester] | 42 | 71 | – |
| CCCCCOC(=O)c1c(OCCCCC)cnc2ccccc12 [Example 19, 3-pentyloxy-quinoline-4-carboxylic acid pentyl ester] | 38 | 59 | – |
| CCCCCOc1ccccc1C(C)=O [Example 20, 1-(2-pentyloxy-phenyl)-ethanone] | 24 | 41 | – |
| CCCCCOc1cccc(C(C)=O)c1 [Example 21, 1-(3-pentyloxy-phenyl)-ethanone] | 25 | 45 | – |
| CCCCCOc1cc2ccccc2cc1C(C)=O [Example 22, 1-(3-pentyloxy-naphthalen-2-yl)-ethanone] | 19 | 37 | – |
| CC(=O)Oc1ccccc1C(C)=O [Example 23, acetic acid 2-acetyl-phenyl ester] | 27 | 41 | – |
| CCCCC(CC)C(=O)Oc1ccccc1C(C)=O (centres unmarked) [Example 24, 2-ethylhexanoic acid 2-acetyl-phenyl ester] | 19 | 38 | – |
| CCCCCOc1ccccc1CCC [Example 25, 1-pentyloxy-2-propyl-benzene] | 16 | 31 | – |
| CCCCC(CC)C(=O)Oc1ccccc1CCC (centres unmarked) [Example 26, 2-ethylhexanoic acid 2-propyl-phenyl ester] | 24 | 35 | – |
| CCCCC(CC)C(=O)Oc1cccc(CCC)c1 (centres unmarked) [Example 27, 2-ethylhexanoic acid 3-propyl-phenyl ester] | 23 | 41 | – |
| CCCCC(CC)COC(=O)c1ccccc1O (centres unmarked) [Example 28, 2-hydroxy benzoic acid 2-ethylhexyl ester] | 27 | 39 | – |
| CCCCC(CC)COC(=O)c1cccc(O)c1 (centres unmarked) [Example 29, 3-hydroxy benzoic acid 2-ethylhexyl ester] | 26 | 37 | – |
| Oc1ccc(O)cc1 [Hydroquinone, hydroquinone, reference compound] | – | – | cytotoxicity [3]: serious cytotoxicity; Inhibition rate (%) of melanin generation ([2]; 5 μg/ml, cultured for 3 days, relative to control): Apoptosis; inhibition at 1 µg/mL ([2]; Mus musculus, 72 h, 1 μg/ml, cultured for 3 days, relative to control, read-out: Inhibition rate (%) of melanin generation): 48%; melanin generation inhibitory effects (in words) ([2]; cultured mouse melanoma cells): strong effects of inhibiting melanin generation at a low concentration |
